What was measured:
HT4 cells [1] = test: Flow cytometric assay of fragmented DNA (glutamate-induced apoptosis); format: cell-based, mouse; details: 10 mM glutamate, 24 h, FIG. 1
Procedure: (§1) HT-4 cells (mouse hippocampal cell line) were purchased from American Type Culture Collection (ATCC, Bethesda, Md.). All experiments reported here were carried out with 10 mM glutamate.
(§2) HT4 cells were grown in DMEM supplemented with 10% serum and 100 U/ml penicillin-streptomycin at 37° C. in a humidified atmosphere containing 95% air/5% CO2.
(§3) All experiments were performed under the following protocol. Cells were allowed to grow to confluency, were trypsinized and subcultured in culture dishes at a concentration of 375,000 cells per millititer. The cells were continually cultured at 37° C. and were allowed to grow for 24 h, and then were exposed to glutamate treatment.
HT4 cells were exposed to 10 mM glutamate for 24 h with and without antioxidants. […] The permeablized cells were kept in the dark for 6 h at 4° C. and their DNA integrity was analyzed using a flow cytometer (XL, Coulter, FL) with argon-ion laser (excitation 488 nm) and the 575 nm emission was recorded in fluorescence channel 1 (FL1). […]
The pathway of cell death was explored by staining the cells for 6 h following the glutamate treatment with a DNA-binding fluorescent dye, propidum iodide (PI) in cells permeabilised with a low concentration of detergent (Triton X-100 0.1% w/v). […] The cells were analyzed by flow cytometry.

HT4 cells [2] = test: Cell viability by LDH leakage after glutamate treatment; format: cell-based, mouse; details: 10 mM glutamate, FIG. 2
Procedure: as §1, §2, §3
Cell viability was assayed using lactate dehydrogenase (LDH) leakage. After completion of the experiments, culture medium was removed from plates and centrifuged (500 g×5 min). The cells that detached from the monolayer following glutamate treatment were separated by centrifugation of the growth medium. […] LDH activity was measured from the samples spectophotometrically within two days of storage. Cell viability was determined using the following formula: viability=attached cell LDH activity/total LDH activity (medium+detached cell LDH activity+attached cell LDH activity).

ICAM-1 = test: PMA-induced ICAM-1 expression in ECV endothelial cells (flow cytometry); format: cell-based, human; details: same concentration; 20 nM PMA, 24 h; FIG. 3
Procedure: EV304 (ECV), a spontaneously transformed immortal human endothelial cell line established from the vein of an apparently normal human umbilical cord, were obtained from ATCC (Bethesda, Md.). ECV cells were grown in medium 199 supplemented with 10% fetal calf serum, 100 U/ml penicillin and 100 μg/ml streptomycin. Cells were maintained in a standard culture incubator with humidified air containing 5% CO2 at 37° C. ECV monolayers were pretreated with LA or LA-PLUS for the time period indicated in the respective figure legend. Following the pretreatment, cells were activated using 20 nM PMA for 24 h. […] Appropriate isotypic controls were used for background fluorescence in the ICAM-1 assay. The fluorescence and light scattering properties (forward scatter, FS; side scatter, SS) of the cells were determined by using an EPICS-Elite (Coulter, Miami, Fla.) flow cytometer. Cells with FITC-conjugated antibodies were excited using a 488 nm argon ion laser and emission of FTIC was recorded at 525 nm. […] A logarithmic scale was used to measure both background and endothelial cell fluorescence. Background fluorescence was then subtracted from endothelial cell fluorescence, allowing linear comparisons of ICAM-1 expression between various samples.

L6 myoblasts = test: Glucose uptake by L6 rat muscle derived cells; format: cell-based; details: 1 h pretreatment; FIG. 4
Procedure: L6 cells were obtained from American Type Culture Collection (MD). Dulbecco's Phosphate Buffered Saline (DPBS) and Dulbecco's Modified Eagle Medium (DMEM) supplemented with high glucose, L-glutamine, pyridoxine hydrochloride and 110 mg/l sodium pyruvate were obtained from GIBCO BRL (Life Technologies NY). Fetal calf serum (FCS) and other reagents for the culture medium were obtained from the cell culture facility of the University of California-San Francisco. Undifferentiated mononucleated cells (myoblasts) were used in this study. For experiments, cells were seeded at a concentration of 0.2×10^6 cells per well in 6-well flat bottom tissue culture treated polystyrene plates (FALCON, Becton Dickinson Labware, NJ). Cultures were grown in DMEM supplemented with 10% FCS, 5 mM glutamine, 0.3% D-glucose, 50 U/ml of penicillin, and […] of streptomycin, in humidified air containing 5% CO2 at 37° C. Cell viability was greater than 97% as estimated by trypan blue exclusion or propidium iodide staining. The cells were split once every third day. All experiments were carried out on cells (6th to 12th passage) in the third day of the last passage. Cells seeded in 6-well plates were washed thrice with 1 ml transport suffer (140 mM NaCl, 5 mM KCl, 2.5 mM MgCl2, 1 mM CaCl2 in 20 mN tris-HEPES, pH 7.4) at room temperature. […] Radioactivity in each sample was read using a scintillation counter.

Jurkat T cells = test: Cells' ability to retain the reduced forms (DTNB efflux assay), Jurkat T cells; format: cell-based; details: 0.1 mM LA or LA-PLUS, FIG. 6A
Procedure: (§4) Jurkat T cells or neuronal HT4 cells were incubated with LA (0.1 mM) or LA-PLUS (0.1 mM). The medium of the cells was replaced by phosphate buffer saline that contained 250 uM of 5,5′-dithiobis-(2-nitrobenzoic acid) (DTNB). The free thiols in the medium were trapped by the DTNB and absorption was measured at 420 nm at different time intervals.
(§5) The efflux of DHLA and DHLA-PLUS from cells was measured in the medium of cells in culture. The medium was composed of PBS and DTNB. […] An illustration of how LA-PLUS crosses biological barriers such as membranes (also showing retention of DHLA-PLUS inside the cell) is given in FIG. 7.

HT4 neuronal cells = test: Cells' ability to retain the reduced forms (DTNB efflux assay), HT4 neuronal cells; format: cell-based, mouse; details: 0.1 mM LA or LA-PLUS, FIG. 6B
Procedure: as §4, §5

CN(C)CCNC(=O)CCCCC1CCSS1.Cl (centres unmarked) [LA-PLUS, N,N-Dimethyl-N-2-Amidoethyl Lipoate (HCl)]
glutamate-induced apoptotic process (cell shrinkage, DNA fragmentation) (HT4 cells [1]; 50 μM compound): completely blocked
anti-apoptotic effect compared to LA (HT4 cells [1]): much more pronounced compared to the effect of LA
efficiency in protecting HT4 cells compared to lipoic acid (HT4 cells [2]): more efficient in protecting the HT4 cells than lipoic acid
down-regulation of PMA induced ICAM-1 expression compared to LA (ICAM-1): much more effectively down-regulated
enhancement of glucose uptake compared to LA (L6 myoblasts): clearly more effective than LA

O=C(O)CCCC[C@@H](S)CCS (racemic) [DHLA, dihydrolipoate]
efflux of reduced form from cells / retention inside cells (Jurkat T cells): effluxed from the cell faster than DHLA-PLUS
efflux of reduced form from cells / retention inside cells (HT4 neuronal cells): effluxed from the cell faster than DHLA-PLUS

O=C(O)CCCCC1CCSS1 (centres unmarked) [LA, 1,2-dithiolane-3-pentanoic acid, reference compound]
protection of HT4 cells against glutamate cytotoxicity (viability) (HT4 cells [2]; 100 μM compound): did not provide total protection

From patent US6387945B2, “Lipoic acid analogs” (The Regents of the University of California, priority 2000, dated 2002)
